The test system of one assay is human recombinant PKR. Description: Proteolytic cleavage of PKR by IS 100, Western analysis. Format: biochemical. The following applies: inhibitor included in reaction mixture, FIG. 2 lane 1. The method, then:
(§1) FIG. 2 illustrates proteolytic cleavage by formulation IS 100 shown by Western analysis of cleavage products of substrate proteins. IS 100 was incubated with the test protein in the presence and absence of the synthetic inhibitor Ac-DEVD-CHO, and the reaction product was immunoblotted using antibody for the test protein.
(§2) These two proteins were chosen simply because of their ready availability with the investigators. In fact, any protein will be a substrate for IS 100. In a typical protocol, IS 100 is incubated with the test substrate protein in the presence and absence of the synthetic inhibitor Ac-DEVD-CHO, and the reaction products are analyzed by electrophoresis, the amount of the uncut test protein is immunoblotted with human anti-PKR or anti-PERK antibodies. Note that immunoblotting of a test protein by using the corresponding antibody will show the status of that protein alone, and not other proteins present in IS 100.

The test system of the next assay is human recombinant PERK. Description: Proteolytic cleavage of PERK by IS 100, Western analysis. The assay is classed as biochemical. The following applies: inhibitor included in reaction mixture, FIG. 2 lane 1. The method, then: as §1, §2
Assay [1] relates to IS 100. Format: biochemical, wheat. The following applies: pH 7, 37° C.; for inhibition of IS 100 activity (in words): Ac-DEVD-AFC hydrolysis, 20 mM HEPES, 0.05% CHAPS, 5% sucrose, FIG. 3. The procedure:
As described above, the proteolytic activity of IS 100 can be blocked by using an inhibitor which blocks the active site of the protein enzyme present in the IS 100 principle. In FIG. 2 inhibitor Ac-DEVD-CHO inhibits the activity of IS 100. Several other chemicals or compounds can be tested for their efficacy in blocking the activity of IS 100. In such experiments, IS 100 is mixed with its synthetic substrate Ac-DEVD↓-AFC, and a constant volume of the inhibitor compound is added to check the extent to which the inhibitor blocks the activity of IS 100. In all experimental runs the concentrations of IS 100 and Ac-DEVD↓-AFC are maintained uniformly. The pH for all experiments is kept at 7 and the experiments are run at 37° C.

Assay [2] deals with IS 100. The following applies: Ac-DEVD-AFC hydrolysis.
Method: Rates of hydrolysis of a synthetic peptide Ac-DEVD↓-AFC (N-acetyl-Asp-Glu-Val-Asp-7-amino-4-trifluoromethylcoumarin) as a function of variables are plotted. Note that the rate, ΔF, is determined from the initial slope of the time-dependent fluorescence trace.
In the present test, 400 μL of IS 100 is combined with 2 μL of a 1 mM solution of Ac-DEVD↓-AFC, and the fluorescence is monitored as a function of time at 37° C.

The source of these data is patent US20160058847A1, “IS100- A Highly Effective Enzyme Principle For Use In Dermal Therapeutics, And For Health And Beauty” (Issar Pharmaceuticals Pvt. Ltd., priority 2014, published 2016).

“Also recorded” adds a separate entry of the source.

On to Ac-DEVD-CHO, for which, in the assay with human recombinant PKR, the “block of PKR cleavage by IS 100” value is given as “cleavage is blocked; also recorded: not cleaved”. Also, the “block of PERK cleavage by IS 100” value with human recombinant PERK was “cleavage is blocked; also recorded: not cleaved”. In addition, the “inhibition of IS 100 activity (in words)” value in the assay with IS 100 [1] is listed as “inhibits the activity of IS 100 significantly”. On to `[Cl-].[Cl-].[Mg+2]` [MgCl2, magnesium chloride], for which the “concentration at which the activity passes through a minimum” value with IS 100 [2] (FIG. 1F) is given as approximately 0.1 mM. Consider `[Cl-].[Na+]` [NaCl, sodium chloride], for which, in the assay on IS 100 [2] (FIG. 1D), the “effect of NaCl concentration on enzyme activity” value was “highly sensitive”. In the case of `O=C(O)CI` [IAA, Iodoacetic acid], the “inhibition of IS 100 activity (in words)” value in the assay on IS 100 [1] is given as “completely inhibits the activity; also recorded: almost completely knocks out the activity”. Consider `[Cl-].[Cl-].[Zn+2]` [ZnCl2, zinc chloride], for which, at IS 100 [2] (read-out: apparent binding constant, KZn app (inhibition), FIG. 1E), the Kd stood at 310 µM. Take `CC(=O)N[C@@H](CC(C)C)C(=O)N[C@@H](CC(C)C)C(=O)N[C@H](C=O)CCCNC(=N)N` [leupeptin]: the “inhibition of IS 100 activity (in words)” value in the assay with IS 100 [1] is recorded as “influences the activity to some extent”. Besides, in the assay with IS 100 [1] (at ~25 μM, FIG. 3B), the “inhibition of IS 100 activity, saturation level” value is given as 30%. Regarding `O=S(=O)(F)Cc1ccccc1` [PMSF, phenylmethanesulfonyl fluoride], the “inhibition of IS 100 activity (in words)” value in the assay with IS 100 [1] was “only marginally; also recorded: sign of inhibition is also apparent”. Besides, the “inhibition of IS 100 activity” value with IS 100 [1] (at 1000 μM, FIG. 3C) is listed as approximately 10%.
